Experimental findings from US9789095B2, “Inhibitors of calcium-activated chloride channels” (The Regents of the University of California, priority 2007, dated 2017) are described below.

The test system of data set [1] is calcium-activated chloride channel (CaCC). Put plainly: YFP fluorescence plate reader iodide influx assay in HT-29 cells (ATP/carbachol). In kind it is cell-based, human. As to conditions: semi-quantitative. The procedure:
Screening was performed using a customized screening system (BECKMAN COULTER, Inc., Indianapolis, Ind.) consisting of the SAGIAN Core system integrated with SAMI software, and equipped with an ORCA arm for labware transport, a 96-channel head BIOMEK FX, CO2 incubator, plate washer, bar code reader, delidding station, and two FLUOstar OPTIMA fluorescence plate readers (BMG Labtechnologies, Durham, N.C.), each equipped with syringe pumps and custom excitation/emission filters (500/544 nm; CHROMA, Brattleboro, Vt.).
HT-29 cells expressing YFP-H148Q/I152L were plated in 96-well plates at 70% confluence. Plates were incubated overnight at 37° C., 5% CO2 and then the growth medium was replaced with fresh growth medium. […] YFP fluorescence was measured 1 s before and for 30 s after addition of a PBS-iodide solution (PBS that has 100 mM chloride replaced by iodide) containing carbachol and ATP (100 μM each). Each 96-well plate contained ‘positive’ controls (DMSO vehicle without agonists or test compounds) and ‘negative’ controls (DMSO vehicle with agonists but without test compounds). In some experiments solutions included (individually or in combination): carbachol, ATP, or histamine (at 50, 100, 150 or 200 μM), calcimycin (10 μM), thapsigargin (2 μM) and CFTRinh-172 (20 μM).
Iodide influx (d[I^−]/dt at t=0) was computed from fluorescence time course data by single exponential regression, as described (Ma et al., J. Clin. Invest. 110:1651-8 (2002)). Percentage inhibition was computed as: percentage inhibition=100×(Slopenegative control−Slopetest compound)/(Slopenegative control−Slopepositive control).

Data set [2] deals with agonist-induced [Ca2+]i elevation. Put plainly: Cytoplasmic calcium measurement by Fura-2 fluorescence in HT-29 cells. As to conditions: pretreatment at high concentration prior to agonist. The format is cell-based, human. On the procedure:
[Ca^2+]i was measured in confluent monolayers of HT-29 cells after loading with Fura-2 (2 μM Fura-2-AM, 30 min, 37° C.). Labeled cells were mounted in a perfusion chamber on the stage of an inverted epifluorescence microscope. Cells were superfused with (in mM): 140 NaCl, 5 KCl, 1 MgCl2, 1 CaCl2, 10 D-glucose, and 10 HEPES (pH 7.4), initially without and then with ATP/carbachol. Test compounds were present in some experiments for 10 min prior to agonist addition. Fura-2 fluorescence was recorded at excitation wavelengths of 340 nm and 380 nm using standard procedures

Data set [3] deals with CaMKII phosphorylation. Put plainly: CaMKII phosphorylation immunoblot in HT-29 cells. The format is cell-based. As to conditions: 30 μM pretreatment, ATP/carbachol. The text has this: CaMKII Regulation of CaCC activation by CaMKII occurs in a cell type-dependent manner (Hartzell et al., Annu. Rev. Physiol. 67:719-58 (2005)). CaMKII has been reported to regulate calcium-activated chloride current in HT-29 and T84 cells (Worrell et al., Am. J. Physiol. 260:C877-82 (1991); Morris et al., Am. J. Physiol. 264:C977-85 (1993); Chan et al., J. Biol. Chem. 269:32464-8 (1994); Braun et al., J. Physiol. 488:37-55 (1995)). To determine whether the CaCC inhibitors interfered with ATP/carbachol-induced CaMKII activation, CaMKII phosphorylation in HT-29 cells was measured by immunoblot analysis. Calcium/calmodulin-dependent protein kinase II (CaMKII) was activated by 2 min treatment of HT-29 cells with ATP/carbachol (each 100 μM). Cells were then lysed with cell lysis buffer (20 mM Tris-HCl (pH 7.4), 1% Triton X-100, 150 mM NaCl, 2 mM EDTA, 50 mM α-glycerolphosphate, 1 mM Na3VO4, 1 mM DTT, and complete protease inhibitor mixture (Roche Applied Science)). Cell debris was removed by centrifugation, and proteins in the supernatant were resolved by SDS-PAGE and immunoblotted using standard procedures (transfer to PDVF membrane, 1 h blocking in 5% nonfat dry milk, primary/secondary antibody incubations, enhanced chemiluminescence detection). Rabbit polyclonal antibodies for anti-phospho-CaMKII (Thr286) and β-actin were purchased from Cell Signaling Technology (Danvers, Mass.).
(A western blot detects proteins with antibodies after separation by electrophoresis.)

For data set [4], the system named is calcium-activated chloride channel (CaCC). Put plainly: Whole-cell patch-clamp of calcium-dependent chloride current in HT-29 cells. In kind it is cell-based, human. As to conditions: for calcium-dependent chloride current reduced: 1 μM ionomycin, HT-29; for ionomycin-induced chloride currents, symmetric NMDG-Cl solutions: whole-cell, pretreatment. On the procedure:
Whole cell recordings were accomplished with HT-29 cells at room temperature. The pipette solution contained (in mM): 30 CsCl, 100 Cs-aspartate, 1 MgCl2, 0.5 EGTA, 2 Tris-ATP, and 10 HEPES (pH 7.2 with CsOH), and the bath solution contained (in mM) 140 N-methyl-D-glucamine chloride (NMDG-Cl), 1 CaCl2, 1 MgCl2, 10 glucose, and 10 HEPES (pH 7.2). In one set of studies, symmetric NMDG-Cl solutions contained 140 mM NMDG-Cl, 1 mM MgCl2, 0.5 mM EGTA, 2 mM Tris-ATP, and 10 mM HEPES, pH 7.2. Pipettes were pulled from borosilicate glass and had resistances of 3-5 MΩ after fire polishing. Seal resistances were typically between 3-10 GΩ. After establishing the whole cell configuration, CaCCs were activated by 1 μM ionomycin. Whole cell currents were elicited by applying hyperpolarizing and depolarizing voltage pulses from a holding potential of 0 mV to potentials between −120 mV and +120 mV in steps of 20 mV. Currents were filtered at 5 kHz, and digitized and analyzed using an AxoScope 10.0 system and a Digidata 1440A […] (Molecular Devices, Sunnyvale, Calif.). Mean currents were expressed as current densities (picoampere per picofarad (pA/pF)).

In data set [5] the test system is CaCC in T84 cells. Put plainly: Short-circuit current (chloride secretion) in T84 cell monolayers. In kind it is cell-based, human. The procedure:
ATP/carbachol were used to induce calcium-dependent chloride secretion in well-differentiated T84 cell monolayers. T84 cells were seeded at a density of 10^5 cm^−2 on permeable supports (Snapwell, 1.12 cm^2 surface area) and grown until confluent. Supports containing confluent cell monolayers were mounted in Snapwell diffusion chambers. Cells were bathed for a 30 min stabilization period in HCO3^−-buffered solution containing (mmol/L): 120 NaCl, 5 KCl, 1 MgCl2, 1 CaCl2, 10 D-glucose, 5 HEPES, and 25 NaHCO3 (pH 7.4), aerated with 95% O2/5% CO2 at 37° C. Monolayers were voltage-clamped at 0 mV (EVC4000 Multi-Channel V/I Clamp, World Precision Instruments), and short-circuit current (Isc) was recorded continuously with agonists/inhibitors added at specified times.

Data set [6] addresses T1, human wildtype CFTR (Homo sapiens, UniProt P13569).
T1 construct: expressed in transfected cells; host or cells: Fisher rat thyroid (FRT) cells
The data set is described as follows: Iodide influx in FRT cells expressing human wildtype CFTR. In kind it is cell-based. As to conditions: 20 μM. On the procedure:
Cystic Fibrosis Transmembrane Conductance Regulator (CFTR) Experiments were performed to determine whether the compounds affected CFTR because CFTR is a major intestinal chloride channel and evidence exists for cross-talk between cAMP and calcium signaling in intestinal cell chloride secretion (Schultheiss et al., Eur. J. Pharmacol. 546:161-70 (2006); Takahashi et al., J. Med. Microbiol. 49:801-10 (2000); Chao et al., EMBO J. 13:1065-72 (1994)). As described (Ma et al., J. Clin. Invest. 110:1651-8 (2002)), FRT cells expressing human wildtype CFTR and YFP-H148Q/I152L, at 100% confluence, were washed 3 times with PBS, leaving 60 μL. CFTR was activated by a cocktail containing forskolin (20 μM), genistein (50 μM), and isobutylmethylxanthine (100 μM). Iodide influx as described in Example 1 was measured at 10 min after addition of test compounds by determining YFP fluorescence for 2 s before and 20 s after addition of 165 μl of PBS-iodide.

Data set [7] is described as follows: Aqueous solubility in PBS by optical absorbance of a saturated solution. In kind it is physicochemical. As to conditions: aqueous buffer, thermodynamic from solid. From the text:
The high aqueous solubility is a consequence of their polarity and negative charge at physiological pH.

The term % inhibition denotes the share of the control response that was lost under treatment. For orientation: solubility means the concentration that dissolves in the medium under given conditions. Lower therefore signals little dissolved substance.

T1 sequence (P13569 whole entry): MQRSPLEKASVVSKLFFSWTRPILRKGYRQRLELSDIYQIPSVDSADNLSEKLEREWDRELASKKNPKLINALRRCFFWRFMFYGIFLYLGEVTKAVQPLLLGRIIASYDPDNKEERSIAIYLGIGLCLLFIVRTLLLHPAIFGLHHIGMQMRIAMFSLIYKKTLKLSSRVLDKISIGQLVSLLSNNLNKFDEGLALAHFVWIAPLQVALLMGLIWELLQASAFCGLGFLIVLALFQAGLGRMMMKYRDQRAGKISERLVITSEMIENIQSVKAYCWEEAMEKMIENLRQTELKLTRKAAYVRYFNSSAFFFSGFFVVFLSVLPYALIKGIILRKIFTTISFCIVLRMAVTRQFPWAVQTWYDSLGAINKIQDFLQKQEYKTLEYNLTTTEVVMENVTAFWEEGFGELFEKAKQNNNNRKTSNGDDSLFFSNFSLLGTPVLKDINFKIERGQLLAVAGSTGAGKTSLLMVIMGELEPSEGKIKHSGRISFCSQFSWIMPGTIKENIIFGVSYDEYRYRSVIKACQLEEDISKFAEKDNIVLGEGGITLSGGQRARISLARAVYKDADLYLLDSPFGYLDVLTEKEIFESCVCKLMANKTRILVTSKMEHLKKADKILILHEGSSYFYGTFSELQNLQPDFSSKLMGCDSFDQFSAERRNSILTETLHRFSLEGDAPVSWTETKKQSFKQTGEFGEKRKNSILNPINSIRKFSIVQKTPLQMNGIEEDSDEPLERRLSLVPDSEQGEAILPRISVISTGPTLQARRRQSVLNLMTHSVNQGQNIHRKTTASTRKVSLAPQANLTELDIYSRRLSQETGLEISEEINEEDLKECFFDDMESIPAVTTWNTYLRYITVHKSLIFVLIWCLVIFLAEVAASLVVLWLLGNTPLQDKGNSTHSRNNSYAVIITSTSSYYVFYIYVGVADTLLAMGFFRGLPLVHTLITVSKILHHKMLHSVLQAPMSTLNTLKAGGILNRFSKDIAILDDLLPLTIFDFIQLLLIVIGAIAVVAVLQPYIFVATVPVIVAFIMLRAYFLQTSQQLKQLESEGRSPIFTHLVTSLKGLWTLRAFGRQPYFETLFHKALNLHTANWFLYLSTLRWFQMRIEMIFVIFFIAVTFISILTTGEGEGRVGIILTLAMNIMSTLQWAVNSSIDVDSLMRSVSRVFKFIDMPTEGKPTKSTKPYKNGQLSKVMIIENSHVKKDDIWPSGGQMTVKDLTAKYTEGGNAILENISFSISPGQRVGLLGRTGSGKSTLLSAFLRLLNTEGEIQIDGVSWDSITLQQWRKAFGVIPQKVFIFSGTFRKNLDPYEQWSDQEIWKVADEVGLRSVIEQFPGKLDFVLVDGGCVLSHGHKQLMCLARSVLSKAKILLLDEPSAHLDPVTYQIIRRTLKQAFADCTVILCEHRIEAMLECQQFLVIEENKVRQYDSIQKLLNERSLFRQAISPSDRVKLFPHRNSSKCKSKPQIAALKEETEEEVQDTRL

For the compound “2-hydroxy-5-(4-p-tolylthiazol-2-ylamino)benzoic acid [CaCCinh-B01]”, the “% inhibition at 25 μM” value in data set [1] (class B aminothiazoles) stood at 100%. For the same compound, in data set [2], the “ATP or carbachol-induced [Ca2+]i elevations” value is listed as “did not significantly reduce”. The “agonist-induced CaMKII phosphorylation” value in data set [3] is given as “did not significantly affect”. The “calcium-dependent chloride current reduced” value in data set [4] (0.1 μM compound) is on record as 11±7%; in data set [4] (1 μM compound) it was 34±12%; in data set [4] (10 μM compound) it was 77±4%. Further, in data set [4], the “ionomycin-induced chloride currents, symmetric NMDG-Cl solutions” value is given as “reduced ionomycin-induced currents”. Besides, the “ATP-induced short-circuit current reduced” value in data set [5] (10 μM compound) is given as 29±11%; in data set [5] (30 μM compound), 64±3%.
Take `O=C(O)c1ccc(C=C2SC(=S)N(c3cccc(C(F)(F)F)c3)C2=O)cc1` [CFTRinh-172, 3-[(3-trifluoromethyl)phenyl]-5-[(4-carboxyphenyl)methylene]-2-thioxo-4-thiazolidinone, reference compound]: the “CFTR inhibition (iodide influx), positive control” value in data set [6] is listed as “inhibition”.
Consider `CC(C)(C)C1CCc2c(sc(NC(=O)c3ccco3)c2C(=O)O)C1` (centres unmarked) [CaCCinh-A01, 6-tert-butyl-2-(furan-2-carboxamido)-4,5,6,7-tetrahydrobenzo[b]thiophene-3-carboxylic acid], for which, in data set [1] (class A aminothiophenes), the “% inhibition at 25 μM” value stood at 100%. The solubility in data set [7] was above 500 µM. The “ATP or carbachol-induced [Ca2+]i elevations” value in data set [2] is listed as “did not significantly reduce”. For the same compound, the “agonist-induced CaMKII phosphorylation” value in data set [3] is on record as “did not significantly affect”. Moreover, the “calcium-dependent chloride current reduced” value is 38±14% in data set [4] (0.1 μM compound), 66±10% in data set [4] (1 μM compound) and 91±1% in data set [4] (10 μM compound). Further, the “ionomycin-induced chloride currents, symmetric NMDG-Cl solutions” value in data set [4] is recorded as “reduced ionomycin-induced currents”. For the same compound, the “ATP-induced short-circuit current reduced” value came to 38±7% in data set [5] (10 μM compound) and 78±3% in data set [5] (30 μM compound).
